Experimental data published in ChEMBL document CHEMBL1143922, “Pharmacophore identification of Raf-1 kinase inhibitors” (Bioorg Med Chem Lett, 2008).

These molecules were tested against RAF proto-oncogene serine/threonine-protein kinase (Homo sapiens, UniProt P04049) (assay: Inhibition of Raf1 kinase).
Chain of RAF proto-oncogene serine/threonine-protein kinase (P04049 whole entry): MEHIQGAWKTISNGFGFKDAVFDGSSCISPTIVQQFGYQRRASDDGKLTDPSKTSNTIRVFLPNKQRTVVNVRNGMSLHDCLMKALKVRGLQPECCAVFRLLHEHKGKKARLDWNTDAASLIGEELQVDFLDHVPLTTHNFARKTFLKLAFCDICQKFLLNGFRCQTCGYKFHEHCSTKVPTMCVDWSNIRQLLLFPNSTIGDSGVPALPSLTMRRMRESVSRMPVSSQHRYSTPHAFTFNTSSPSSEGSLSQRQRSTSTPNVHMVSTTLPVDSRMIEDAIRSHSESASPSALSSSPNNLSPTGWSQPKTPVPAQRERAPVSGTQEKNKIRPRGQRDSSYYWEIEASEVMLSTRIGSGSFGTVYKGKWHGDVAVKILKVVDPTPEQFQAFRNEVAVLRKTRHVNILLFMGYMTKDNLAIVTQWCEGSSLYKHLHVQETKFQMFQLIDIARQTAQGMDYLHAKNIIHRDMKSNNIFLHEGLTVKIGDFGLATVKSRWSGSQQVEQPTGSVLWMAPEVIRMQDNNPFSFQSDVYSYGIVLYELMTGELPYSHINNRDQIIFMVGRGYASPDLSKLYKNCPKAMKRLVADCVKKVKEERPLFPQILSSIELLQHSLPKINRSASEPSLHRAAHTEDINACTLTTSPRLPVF

Point of comparison: CC(C)(C)c1cc(NC(=O)Nc2ccc(Oc3ccc(C(=O)O)cc3)cc2)no1, IC50 6300 nM. Against it:
- CN(c1ccncc1)c1ccc(NC(=O)Nc2cc(C(C)(C)C)on2)cc1 — 1.8-fold lower, 3500 nM
- Oc1cc(-c2nc(-c3ccccc3)[nH]c2-c2ccncc2)ccc1Cl — 4500-fold lower, 1.4 nM
- Cc1cccc(C)c1/C=C/c1cncc(C#N)c1 — 6.3-fold lower, 1000 nM
- CNC(=O)Oc1cc(C)c(/C=C/c2cncc(C(=O)NC)c2)c(C)c1 [GW432441X] — 630-fold lower, 10 nM
- NC(=O)c1cc(Oc2ccc(NC(=O)Nc3ccc(Cl)c(C(F)(F)F)c3)cc2)ccn1 — 480-fold lower, 13 nM
- CC(C)(C)c1nnc(NC(=O)Nc2ccc(Oc3ccncc3)cc2)o1 — the same, 6300 nM
- CNC(=O)c1cncc(/C=C/c2c(Cl)cccc2Cl)c1 [GW445014X] — 25-fold lower, 251 nM
- Cc1cc(-c2ccccn2)cc(C)c1/C=C/c1cncc(-c2nn[nH]n2)c1 — 63-fold lower, 100 nM
- Cc1cc(O)cc(C)c1/C=C/c1cncc(C(N)=O)c1 [GW435821X] — 40-fold lower, 158 nM
- CNC(=O)Oc1cc(C)c(/C=C/c2cncc(C(N)=O)c2)c(C)c1 — 900-fold lower, 7 nM
- Cc1cc(-c2cccnc2)cc(C)c1/C=C/c1cncc(-c2nn[nH]n2)c1 — 10-fold lower, 630 nM
- CNC(=O)Oc1cc(C)c(/C=C/c2cncc(C(=O)O)c2)c(C)c1 — 1000-fold lower, 6 nM
- CC(C)(C)c1nnc(NC(=O)Nc2ccc(Oc3ccncc3)cc2)s1 — within 1.5-fold, 8600 nM
- CNC(=O)Oc1cc(C)c(/C=C/c2cncc(C#N)c2)c(C)c1 — 160-fold lower, 40 nM
- CNC(=O)c1cncc(/C=C/c2c(C)cccc2C)c1 [GW445012X] — 25-fold lower, 250 nM
- COC(=O)c1nc(C(C)(C)C)sc1NC(=O)Nc1ccc(C)cc1 — 4-fold higher, 25000 nM
